# Laboratory results: US12473339B2, “Acylated glucagon analogues” (Zealand Pharma A/S, priority 2013, dated 2025)
# *1 amine or outer side, *2 acyl side, *3 side chain or, on linkers, in order; H or OH if unused. Where a SMILES comes first, the peptide text is derived from it. Side-chain parts run from the residue outwards. [ ]: non-standard residue; d: D form. The star is where a group is joined. C18 diacid = O=C(O)CCCCCCCCCCCCCCCCC(=O)*; γGlu = O=C(O)[C@H](CCC(=O)[*:2])N[*:1]; Ac4c = NC1(C(=O)O)CCC1; AEEA = NCCOCCOCC(=O)O
# Assays:
# [1] = Pharmacokinetic parameters after intravenous administration to rats; settings: male, Han/Wistar, rat, in vivo, 20 nmol/kg
# Experimental: Pharmacokinetic parameters of the test compounds were determined after intravenous administration to Han/Wistar rats. The acylated GLP-1 analogue semaglutide was also tested for comparison purposes. Male Wistar rats were obtained from Charles River (Germany) weighing approximately 180 to 210 g at time of arrival at the test facility. Rats were caged in European standard rat cages type IV with light cycle of 12-hour dark and 12-hour light. During the study rats were housed in standard rat cages type III. Both diet Altromin 1324 (Altromin, Germany) and water was administered ad libitum during the whole experimental period. The animals were housed in the test facility for at least 4 days in order to assure proper acclimatization. The compounds were first dissolved in 0.1% aqueous ammonia to a nominal concentration of 2 mg/ml, and then diluted to the desired dosing strength (10 μM) in sterile PBS containing 25 mM phosphate buffer, pH 7.4. Intravenous injections corresponding to 20 nmol/kg were given via a lateral tail vein. Blood samples (200 μl) were collected from the periorbital plexus at time points 0.08, 0.25, 0.5, 1, 2, 4, 8, 24, 32 and 48 h post dosing into K3EDTA tubes and centrifuged for 5 minutes at 4° C. within 20 minutes of sampling. […] Individual plasma concentration-time profiles were analysed by a non-compartmental approach using ToxKin™ version 3.2 (Unilog IT Services), and the resulting pharmacokinetic parameters were determined.
# [2] = biological target: T1, human glucagon-like peptide 1 receptor (GLP-1R) (Homo sapiens, UniProt P43220); test: GLP-1 receptor efficacy assay (cAMP AlphaScreen, CHO cells); type: cell-based; settings: for Ratio GLP-1/Glucagon: EC50 [GLP-1R] / EC50 [Glucagon-R], human receptors in CHO-K1; for EC50: cAMP formation, CHO cells expressing human GLP-1-R, 15 min, read-out: EC50 hGLP-1R CHO-K1
# T1 construct: expressed in transfected cells
# Excerpt: (§1) The cDNA encoding either the human glucagon receptor (Glucagon-R) (primary accession number P47871) or the human glucagon-like peptide 1 receptor (GLP-1R) (primary accession number P43220) were synthesized and cloned into a mammalian expression vector containing a Zeocin resistance marker.
# (§2) The mammalian expression vectors encoding the Glucagon-R or the GLP-1-R were transfected into Chinese hamster ovary (CHO) cells by the Attractene method. Stably expressing clones were obtained by Zeocin selection (250 μg/mL) upon limited dilution of cells resistant to the selection pressure. Glucagon-R and GLP-1-R cell clones expressing were picked, propagated and tested in the Glucagon-R and GLP-1-R efficacy assays as described below. One Glucagon-R expressing clone and one GLP-1-R expressing clone were chosen for compound profiling.
# (§3) CHO cells expressing the human Glucagon-R, or human GLP-1-R were seeded 24 hours prior to the assay at 30,000 cells per well in 96-well microtiter plates in culture in 100 μl growth medium. On the day of analysis, growth medium was removed and the cells were washed once with 200 μl of assay buffer (Krebs-Ringer-buffer—KRBH). The buffer was removed and the cells were incubated for 15 min at room temperature in 10 μl KRBH (KRBH+10 mM HEPES, 5 mM NaHCO3, 0.1% (V/V) BSA) with 0.1 mM IBMX in deionized water containing increasing concentrations of test peptides. The reaction was stopped by the addition of lysis buffer (0.1% w/v BSA, 5 mM HEPES, 0.3% v/v Tween-20). After cell lysis for 10 min at room temperature, lysates were transferred to 384-well plates and 10 μl of acceptor/donorbead mixture as contained in the AlphaScreen™ cAMP Functional Assay Kit was added. After one hour of incubation at room temperature in the dark, the cAMP content was determined applying the AlphaScreen™ cAMP Functional Assay Kit from Perkin-Elmer according to manufacturer instructions. EC50 and relative efficacies compared to reference compounds (glucagon and GLP-1) were calculated applying computer aided curve fitting. The GLP-1/glucagon ratio is calculated as defined earlier.
# [3] = biological target: T2, human glucagon receptor (Glucagon-R) (Homo sapiens, UniProt P47871); test: Glucagon receptor efficacy assay (cAMP AlphaScreen, CHO cells); type: cell-based; settings: cAMP formation, CHO cells expressing human Glucagon-R, 15 min; read-out: EC50 hGCGR CHO-K1
# T2 construct: expressed in transfected cells
# Excerpt: as §1, §2, §3
# T1 sequence (P43220 24-463): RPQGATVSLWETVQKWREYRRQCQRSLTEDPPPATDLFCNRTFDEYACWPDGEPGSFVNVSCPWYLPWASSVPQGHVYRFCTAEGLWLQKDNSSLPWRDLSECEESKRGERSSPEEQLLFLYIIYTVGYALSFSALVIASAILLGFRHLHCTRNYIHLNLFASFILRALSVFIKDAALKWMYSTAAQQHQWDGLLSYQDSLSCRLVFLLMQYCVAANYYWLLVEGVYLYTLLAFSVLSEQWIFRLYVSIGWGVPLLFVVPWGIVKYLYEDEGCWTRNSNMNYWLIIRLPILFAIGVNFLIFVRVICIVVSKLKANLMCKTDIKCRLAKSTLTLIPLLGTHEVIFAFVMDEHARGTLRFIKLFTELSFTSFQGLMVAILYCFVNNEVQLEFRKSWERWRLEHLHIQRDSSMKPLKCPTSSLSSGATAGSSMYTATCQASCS
# T2 sequence (P47871 26-477): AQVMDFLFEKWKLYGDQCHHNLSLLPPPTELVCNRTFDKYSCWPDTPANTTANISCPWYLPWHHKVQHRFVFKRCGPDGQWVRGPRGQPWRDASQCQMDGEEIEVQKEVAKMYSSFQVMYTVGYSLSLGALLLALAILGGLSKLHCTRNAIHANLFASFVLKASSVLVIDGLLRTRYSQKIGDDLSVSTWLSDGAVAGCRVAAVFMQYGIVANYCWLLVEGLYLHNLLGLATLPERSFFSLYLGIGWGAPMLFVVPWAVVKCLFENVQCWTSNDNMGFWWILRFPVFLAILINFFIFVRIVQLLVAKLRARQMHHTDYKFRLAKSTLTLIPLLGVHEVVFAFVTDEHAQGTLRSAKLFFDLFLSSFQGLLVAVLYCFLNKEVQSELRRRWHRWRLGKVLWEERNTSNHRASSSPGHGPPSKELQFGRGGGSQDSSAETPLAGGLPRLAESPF
Compound,MRT [1],clearance [1],half-life [1],Ratio GLP-1/Glucagon [2],EC50 [2],EC50 [3]
CC[C@H](C)[C@H](NC(=O)[C@H](Cc1ccccc1)NC(=O)[C@H](CC(=O)O)NC(=O)[C@H](CCCCN)NC(=O)[C@H](C)NC(=O)[C@H](C)NC(=O)[C@H](CCCNC(=N)N)NC(=O)[C@H](CCC(=O)O)NC(=O)[C@H](CC(=O)O)NC(=O)[C@H](CC(C)C)NC(=O)[C@H](Cc1ccc(O)cc1)NC(=O)[C@H](CCCCN)NC(=O)[C@H](CO)NC(=O)[C@H](Cc1ccc(O)cc1)NC(=O)[C@H](CC(=O)O)NC(=O)[C@H](CO)NC(=O)[C@@H](NC(=O)[C@H](Cc1ccccc1)NC(=O)[C@@H](NC(=O)CNC(=O)[C@H](CCC(N)=O)NC(=O)C(C)(C)NC(=O)[C@@H](N)Cc1c[nH]cn1)[C@@H](C)O)[C@@H](C)O)C(=O)N[C@@H](CCCCNC(=O)CNC(=O)CNC(=O)[C@H](CO)NC(=O)CNC(=O)[C@H](CO)NC(=O)CNC(=O)CC[C@H](NC(=O)CCCCCCCCCCCCCCCCC(=O)O)C(=O)O)C(=O)N[C@@H](Cc1c[nH]c2ccccc12)C(=O)N[C@@H](CC(C)C)C(=O)N[C@@H](CCC(=O)O)C(=O)N[C@@H](CO)C(=O)N[C@@H](C)C(N)=O [Compound 3],28.7 h,3.36 mL/h/kg,1400 min,0.47,0.7 nM,
"CC[C@H](C)[C@H](NC(=O)[C@H](Cc1ccccc1)NC(=O)[C@H](CC(=O)O)NC(=O)[C@H](CCCCN)NC(=O)[C@H](C)NC(=O)[C@H](C)NC(=O)[C@H](CCCNC(=N)N)NC(=O)[C@H](CCCCNC(=O)CNC(=O)CNC(=O)[C@H](CO)NC(=O)CNC(=O)[C@H](CO)NC(=O)CNC(=O)CC[C@H](NC(=O)CCCCCCCCCCCCCCCCC(=O)O)C(=O)O)NC(=O)[C@H](CC(=O)O)NC(=O)[C@H](CC(C)C)NC(=O)[C@H](Cc1ccc(O)cc1)NC(=O)[C@H](CCCCN)NC(=O)[C@H](CO)NC(=O)[C@H](Cc1ccc(O)cc1)NC(=O)[C@H](CC(=O)O)NC(=O)[C@H](CO)NC(=O)[C@@H](NC(=O)[C@H](Cc1ccccc1)NC(=O)[C@@H](NC(=O)CNC(=O)[C@H](CCC(N)=O)NC(=O)C1(NC(=O)[C@@H](N)Cc2c[nH]cn2)CCC1)[C@@H](C)O)[C@@H](C)O)C(=O)N[C@@H](CCC(=O)O)C(=O)N[C@@H](Cc1c[nH]c2ccccc12)C(=O)N[C@@H](CC(C)C)C(=O)N[C@@H](CCC(=O)O)C(=O)N[C@@H](CO)C(=O)N[C@@H](C)C(N)=O [Compound 7, H-H-Ac4c-QGTFTSDYSKYLD-K([17-carboxy-heptadecanoyl]-isoGlu-GSGSGG)-RAAKDFIEWLESA-NH2]",,,,8.82,0.97 nM,
"CC[C@H](C)[C@H](NC(=O)[C@H](Cc1ccccc1)NC(=O)[C@H](CC(=O)O)NC(=O)[C@H](CCCCN)NC(=O)[C@H](C)NC(=O)[C@H](C)NC(=O)[C@H](CCCNC(=N)N)NC(=O)[C@H](CCCCNC(=O)CNC(=O)CNC(=O)[C@H](CO)NC(=O)CNC(=O)[C@H](CO)NC(=O)CNC(=O)CC[C@H](NC(=O)CCCCCCCCCCCCCCCCC(=O)O)C(=O)O)NC(=O)[C@H](CCC(=O)O)NC(=O)[C@H](CC(C)C)NC(=O)[C@H](Cc1ccc(O)cc1)NC(=O)[C@H](CCCCN)NC(=O)[C@H](CO)NC(=O)[C@H](Cc1ccc(O)cc1)NC(=O)[C@H](CC(=O)O)NC(=O)[C@H](CO)NC(=O)[C@@H](NC(=O)[C@H](Cc1ccccc1)NC(=O)[C@@H](NC(=O)CNC(=O)[C@H](CCC(N)=O)NC(=O)C(C)(C)NC(=O)[C@@H](N)Cc1c[nH]cn1)[C@@H](C)O)[C@@H](C)O)C(=O)N[C@@H](CCC(=O)O)C(=O)N[C@@H](Cc1c[nH]c2ccccc12)C(=O)N[C@@H](CC(C)C)C(=O)N[C@@H](CCC(=O)O)C(=O)N[C@@H](CO)C(=O)N[C@@H](C)C(N)=O [Compound 6, H-H-Aib-QGTFTSDYSKYLE-K([17-carboxy-heptadecanoyl]-isoGlu-GSGSGG)-RAAKDFIEWLESA-NH2]",,,,3.25,,
"CC[C@H](C)[C@H](NC(=O)[C@H](Cc1ccccc1)NC(=O)[C@H](CC(=O)O)NC(=O)[C@H](CCCCN)NC(=O)[C@H](C)NC(=O)[C@H](C)NC(=O)[C@H](CCCNC(=N)N)NC(=O)[C@H](CCCCNC(=O)CNC(=O)CNC(=O)[C@H](CO)NC(=O)CNC(=O)[C@H](CO)NC(=O)CNC(=O)CC[C@H](NC(=O)CCCCCCCCCCCCCCCCC(=O)O)C(=O)O)NC(=O)[C@H](CC(=O)O)NC(=O)[C@H](CC(C)C)NC(=O)[C@H](Cc1ccc(O)cc1)NC(=O)[C@H](CCCCN)NC(=O)[C@H](CO)NC(=O)[C@H](Cc1ccc(O)cc1)NC(=O)[C@H](CC(=O)O)NC(=O)[C@H](CO)NC(=O)[C@@H](NC(=O)[C@H](Cc1ccccc1)NC(=O)[C@@H](NC(=O)CNC(=O)[C@H](CCC(N)=O)NC(=O)C(C)(C)NC(=O)[C@@H](N)Cc1c[nH]cn1)[C@@H](C)O)[C@@H](C)O)C(=O)N[C@@H](CCC(=O)O)C(=O)N[C@@H](Cc1c[nH]c2ccccc12)C(=O)N[C@@H](CC(C)C)C(=O)N[C@@H](CCC(=O)O)C(=O)N[C@@H](CO)C(=O)N[C@@H](C)C(N)=O [Compound 5, H-H-Aib-QGTFTSDYSKYLD-K([17-carboxy-heptadecanoyl]-isoGlu-GSGSGG)-RAAKDFIEWLESA-NH2]",,,,4.61,,0.18 nM
"CC[C@H](C)[C@H](NC(=O)[C@H](Cc1ccccc1)NC(=O)[C@H](CC(=O)O)NC(=O)[C@H](CCCCN)NC(=O)[C@H](C)NC(=O)[C@H](C)NC(=O)[C@H](CCCCNC(=O)CC[C@H](NC(=O)CCCCCCCCCCCCCCCCC(=O)O)C(=O)O)NC(=O)[C@H](CCC(=O)O)NC(=O)[C@H](CC(=O)O)NC(=O)[C@H](CC(C)C)NC(=O)[C@H](Cc1ccc(O)cc1)NC(=O)[C@H](CCCCN)NC(=O)[C@H](CO)NC(=O)[C@H](Cc1ccc(O)cc1)NC(=O)[C@H](CC(=O)O)NC(=O)[C@H](CO)NC(=O)[C@@H](NC(=O)[C@H](Cc1ccccc1)NC(=O)[C@@H](NC(=O)CNC(=O)[C@H](CCC(N)=O)NC(=O)C1(NC(=O)[C@@H](N)Cc2c[nH]cn2)CCC1)[C@@H](C)O)[C@@H](C)O)C(=O)N[C@@H](CCC(=O)O)C(=O)N[C@@H](Cc1c[nH]c2ccccc12)C(=O)N[C@@H](CC(C)C)C(=O)N[C@@H](CCC(=O)O)C(=O)N[C@@H](CO)C(=O)N[C@@H](C)C(N)=O [Compound 11, H-H-Ac4c-QGTFTSDYSKYLDE-K([17-carboxy-heptadecanoyl]-isoGlu)-AAKDFIEWLESA-NH2]",,,,2.00,,
"CC[C@H](C)[C@H](NC(=O)[C@H](Cc1ccccc1)NC(=O)[C@H](CC(=O)O)NC(=O)[C@H](CCCCN)NC(=O)[C@H](C)NC(=O)[C@H](CCCNC(=N)N)NC(=O)[C@H](CCCCNC(=O)COCCOCCNC(=O)COCCOCCNC(=O)CC[C@H](NC(=O)CCCCCCCCCCCCCCCCC(=O)O)C(=O)O)NC(=O)[C@H](CCC(=O)O)NC(=O)[C@H](CC(=O)O)NC(=O)[C@H](CC(C)C)NC(=O)[C@H](Cc1ccc(O)cc1)NC(=O)[C@H](CCCCN)NC(=O)[C@H](CO)NC(=O)[C@H](Cc1ccc(O)cc1)NC(=O)[C@H](CC(=O)O)NC(=O)[C@H](CO)NC(=O)[C@@H](NC(=O)[C@H](Cc1ccccc1)NC(=O)[C@@H](NC(=O)CNC(=O)[C@H](CCC(N)=O)NC(=O)C1(NC(=O)[C@@H](N)Cc2c[nH]cn2)CCC1)[C@@H](C)O)[C@@H](C)O)C(=O)N[C@@H](CCC(=O)O)C(=O)N[C@@H](Cc1c[nH]c2ccccc12)C(=O)N[C@@H](CC(C)C)C(=O)N[C@@H](CCC(=O)O)C(=O)N[C@@H](CO)C(=O)N[C@@H](C)C(N)=O [Compound 4, H-H-Ac4c-QGTFTSDYSKYLDE-K([17-carboxy-heptadecanoyl]-isoGlu-Peg3-Peg3)-RAKDFIEWLESA-NH2] (H-H[Ac4c]QGTFTSDYSKYLDEK([AEEA-AEEA-γGlu-C18 diacid])RAKDFIEWLESA-NH2)",17.6 h,6.6 mL/h/kg,822 min,1.56,0.7 nM,
